Experimental data from patent publication US5328922A, “Indole ureas as 5 ht receptor antagonist” (priority 1990, dated 1994).
Counter-ions that a name gives are not always drawn. Like-named read-outs stand apart in the source and are kept apart here.

How the values were obtained:
[1] = biological target: T1, 5-HT1C binding site (Sus scrofa, UniProt K7GSR7); assay: [^3 H]-mesulergine binding to pig choroid plexus membranes in vitro
T1 construct: Pooled pig choroid plexi were homogenised; from tissue; host or cells: pig choroid plexus membranes
T1 sequence (K7GSR7 1-457): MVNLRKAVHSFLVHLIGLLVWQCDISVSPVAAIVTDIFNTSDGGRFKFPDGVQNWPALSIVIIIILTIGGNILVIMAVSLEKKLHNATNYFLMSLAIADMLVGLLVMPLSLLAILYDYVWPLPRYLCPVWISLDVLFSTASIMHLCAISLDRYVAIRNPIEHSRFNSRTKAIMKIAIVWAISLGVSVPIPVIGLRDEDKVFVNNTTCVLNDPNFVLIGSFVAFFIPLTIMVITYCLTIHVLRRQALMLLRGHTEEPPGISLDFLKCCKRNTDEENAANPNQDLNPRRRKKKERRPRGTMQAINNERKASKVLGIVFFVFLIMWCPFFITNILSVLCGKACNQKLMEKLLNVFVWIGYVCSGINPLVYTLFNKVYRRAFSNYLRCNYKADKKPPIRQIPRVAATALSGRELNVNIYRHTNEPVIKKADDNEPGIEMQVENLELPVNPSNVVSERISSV
Excerpt: [^3 H]-mesulergine binding to pig choroid plexus membranes in vitro
(Curzon and Kennett, 1990; Fozard and Gray, 1989) and Alzheimer's Disease (Lawlor, 1989, J. Arch. Gen. Psychiat. Vol. 46 p.542).
The affinity of test drugs for the 5-HT1C binding site can be determined by assessing their ability to displace [^3 H]-mesulergine from 5-HT1C binding sites in pig choroid plexus membranes. The method employed was similar to that of Pazos et al, 1984.
Pooled pig choroid plexi were homogenised in 20 vols of Tris HCl buffer (pH7.4) (containing 4 mM CaCl2 and 0.01% ascorbic acid) and centrifuged at 50,000 g for 15 rain at 4° C. The supernatant was removed and re-centrifuged. This was repeated a further two times with the incubation of the homogenate (37° C. for 15 min) before the final centrifugation. The final pellet was resuspended in 20 vols of buffer and stored at -70° C. until use.
The tissue suspension (50 μl) was incubated with [^3 H]-mesulergine (2 nM) in Tris HCl buffer (pH7.4) at 37° C. (containing 0.01% ascorbic acid, 4 mM CaCl2) and 3×10^-8 M spiperone for 30 minutes. Non-specific binding was measured in the presence of mianserin (10^-6 M). Six concentrations of test drug (10^-9 to 10^-4 M final concentration) were added in a volume of 50 μl. The total assay volume was 500 μl. Incubation was stopped by rapid filtration using a Skatron cell harvester and radioactivity measured by liquid scintillation spectrometry. The IC50 values were determined and the pKi (the negative logarithm of the inhibition constant) calculated from the Cheng Prusoff equation where [formula] wherein: Ki =inhibition constant.
C=concentration of [^3 H]-mesulergine
Kd=Affinity of mesulergine for 5-HT1C binding sites.
Curzon, G. A. and Kennett, G. A. (1990). TIPS, Vol. 11, 181-182. Fozard, J. R. and Gray, J. A. (1989). TIPS, Vol. 10, 307-309. Pazos, A. et al. (1984). Eur. J. Pharmacol., 106, 531-538.

[2] = biological target: T2, 5-HT receptor that has the characteristics of a 5-HT1C receptor (Rattus norvegicus, UniProt P30994); assay: Rat stomach fundus: 5-HT1C antagonist action (inhibition of 5-HT-induced contractions); conditions: rat stomach strips; test drug 10^-6 M for 30 mins; 5-HT dose-response; read-out: apparent dissociation constant, KB
T2 construct: from tissue; host or cells: rat stomach fundus strips
T2 sequence (P30994 whole entry): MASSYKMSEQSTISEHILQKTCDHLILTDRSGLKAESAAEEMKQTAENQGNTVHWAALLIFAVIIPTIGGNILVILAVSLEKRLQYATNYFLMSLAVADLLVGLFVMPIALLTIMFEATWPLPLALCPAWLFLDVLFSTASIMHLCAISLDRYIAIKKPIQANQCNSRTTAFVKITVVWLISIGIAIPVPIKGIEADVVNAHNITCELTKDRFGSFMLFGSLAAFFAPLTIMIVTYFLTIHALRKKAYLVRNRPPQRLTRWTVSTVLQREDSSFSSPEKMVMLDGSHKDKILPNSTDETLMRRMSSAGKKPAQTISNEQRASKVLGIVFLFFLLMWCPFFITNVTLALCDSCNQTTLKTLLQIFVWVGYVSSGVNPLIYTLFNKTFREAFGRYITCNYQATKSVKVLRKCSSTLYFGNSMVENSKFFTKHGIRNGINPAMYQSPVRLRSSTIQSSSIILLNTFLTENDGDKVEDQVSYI
Description: 5-Hydroxytryptamine (5-HT) induces contractions of the rat stomach fundus through a 5-HT receptor that has the characteristics of a 5-HT1C receptor (Blackburn et al, 1990).
Rat stomach strips (6×4 mm) were suspended under a 4 g tension in 5 ml baths containing Tyrode solution, gassed with a mixture of 95% O2 /5% CO2. After a 1 hour equilibration period, two dose response curves were constructed to 5-HT (final concentrations, 10^-9 to 3×10^-6 M). Test drugs were then incubated at a final concentration of 10^-6 M for 30 mins and another dose-response curve constructed to 5-HT. The apparent dissociation constant of a test drug, KB, can be calculated from the equation where [formula] where B=concentration of the test drug and DR=the dose ratio (the factor by which the concentration of the agonist has to be increased in the presence of the test drug to obtain an identical effect observed in the absence of the test drug).

[3] = tested on: rat stomach fundus serotonin receptor; conditions: P. Fludzinski et. al., J. Med. Chem. 1986 29 2415-2418; cited from earlier work
[4] = Social Interaction Test (potential anxiolytic properties); format: in vivo, rat; conditions: male rats; p.o. 1 h pretest; doses of 2-40 mg/kg
Excerpt: Potential anxiolytic properties have been evaluated using the social interaction test based on that described by File (1980 J. Neurosci. Meth., 2, 219). Active social interaction between male rats is usually quantitated by counting interactive behaviours such as following, grooming, sniffing, climbing over or under, biting, mounting and boxing. This behaviour is supressed when the rats encounter each other in an environment which is novel and brightly lit. Under these circumstances anxiolytic drugs will enhance the level of social interaction.
Rats were housed in groups of 8 in a holding room adjacent to the experimental chamber for 8 days. They were then housed singly in the same room for 3 days prior to the experimental day. On the experimental day rats were injected p.o. 1 h pretest with vehicle or drug in pairs at 15 min intervals beginning at 10.00 am. 60 Mins later they were placed with a weight matched pair mate (encountered for the first time) in the social interaction box in a separate room. The box was made of while perspex 54×37×26 cm with no lid. The floor was divided into 24 equal squares and the cage was brightly lit. Active social interaction was scored blind over the next 15 min by remote video monitoring to give total interaction scores. The number of squares crossed by each rat was also scored and summed. […]

[5] = Geller-Seifter Procedure (potential anxiolytic properties); format: in vivo, rat; conditions: rats; 30 min before testing; dose levels in the range 5-40 mg/kg p.o.
Description: Potential anxiolytic properties are evaluated using the Geller-Seifter procedure based on that originally described by Geller and Seifter, (1960) Psychopharmacologia, 1, 482-492.
Rats are trained on a variable interval 30 sec schedule (VI30) to press a lever in order to obtain food reward. The 5 min sessions of the VI30 schedule alternate with 2-5 min of a schedule (FR5) in which every 5th lever press is followed by presentation of a food pellet paired with a 0.5 sec mild footshock. The total study lasts approximately 30 mins. Rats typically respond with high rates of lever pressing under the VI30 schedule and low response rates under the FR5 `conflict` session. Anxiolytic drugs increase the suppressed response rates of rats in a `conflict` session.
Drugs are administered intraperitoneally or orally to groups of 3-8 rats 30 min before testing.
The results are expressed as the percentage increase in the square root of the total number of lever presses in the FR5 `conflict` session. Square root transformation is necessary to normalise the data for statistical analysis using parametric methods.

Row | SMILES | Ki [1] [nM] | Kb [2] [nM] | selectivity for the rat stomach fundus serotonin receptor [3] | Ki ([1]; [^3 H]-mesulergine 2 nM, pig choroid plexus membranes, 3×10^-8 M spiperone, pH7.4, 37° C., 30 minutes, pKi from IC50 by Cheng Prusoff equation, read-out: [^3 ]-Mesulergine pKi (converted)) [nM] | social interaction [4] | responding in the `conflict` session (percentage increase in square root of total lever presses in FR5) [5]
1 | Cn1ccc2c(NC(=O)Nc3cccnc3)cccc21 [E5, N-(1-Methyl-1H-indol-4-yl)-N'-(3-pyridyl)urea hydrochloride] | 200 | 250 |  |  |  | 
2 | CCCn1ccc2cc(NC(=O)Nc3cccnc3)ccc21 [E4, N-(1-Propyl-1H-indol-5-yl)-N'-(3-pyridyl)urea oxalate] | 200 | 400 |  |  |  | 
3 | Cc1c(C)n(C)c2ccc(NC(=O)Nc3cccnc3)cc12 [E3, N-(1,2,3-Trimethyl-1H-indol-5-yl)-N'-(3-pyridyl)urea hydrochloride] | 200 | 25 |  |  |  | 
4 | CCc1c(C)n(C)c2ccc(NC(=O)Nc3cccc(C(F)(F)F)c3)cc12 [N-(1,2-dimethyl-3-ethyl-1H-indol-5-yl)-N'-(3-trifluoromethylphenyl)urea] |  |  | shows selectivity for the rat stomach fundus serotonin receptor |  |  | 
5 | Cl.Cn1ccc2cc(NC(=O)Nc3cccnc3)ccc21 [E2, N-(1-Methyl-1H-indol-5-yl)-N'-(3-pyridyl)urea hydrochloride] |  | 100 |  | 158 | significant increase in social interaction | significant increase in responding in the `conflict` session
6 | CCc1c(C)n(C)c2ccc(NC(=O)Nc3cccnc3)cc12 [E1, N-(1,2-Dimethyl-3-ethyl-1H-indol-5-yl)-N'-(3-pyridyl)urea hydrochloride] | 25.1 | 32 |  |  |  | 
7 | Cn1ccc2ccc(NC(=O)Nc3cccnc3)cc21 [E6, N-(1-Methyl-1H-indol-6-yl)-N'-(3-pyridyl)urea hydrochloride] | 316 | 170 |  |  |  | 
